Data published in patent EP2305660A1, “New thiadiazole derivatives” (Almirall, S.A., priority 2009, dated 2011).
Structures can show the parent of a compound that is named as a salt.

Molecular target: S1P1 (Homo sapiens, UniProt P21453)
Assay: 35S-GTPyS binding assay (membranes)
Type: biochemical
Details: compound 0.1nM-10µM, 0.1nM 35S-GTPyS, 10µM S1P as 100% maximum efficacy, 90 min at room temperature
Protocol: The effect of the compounds was measured using a 35S-GTPyS binding assay. Briefly, membranes were incubated in a buffer containing 20 mM HEPES pH 7.4, 100 mM NaCl, 10 mM MgCl2, 10µM GDP, 50µg/ml saponin and 0.2% fatty acid-free BSA at various concentrations (0.1nM-10µM) and 0.1nM 35S-GTPyS. 10µM S1P was used as 100% maximum efficacy. The assay was incubated for 90 min at room temperature with gentle mixing, and terminated by filtrating the reaction mixture through GF/C filter plates using the Manifold Filtration System. The filters were immediately washed with sodium phosphate pH 7.4 buffer. After drying the filter plates scintillant liquid were added to each well and 35S-GTPyS binding was measured on a Trilux Scintillation Counter.

Sequence of S1P1 (P21453 whole entry, species assumed): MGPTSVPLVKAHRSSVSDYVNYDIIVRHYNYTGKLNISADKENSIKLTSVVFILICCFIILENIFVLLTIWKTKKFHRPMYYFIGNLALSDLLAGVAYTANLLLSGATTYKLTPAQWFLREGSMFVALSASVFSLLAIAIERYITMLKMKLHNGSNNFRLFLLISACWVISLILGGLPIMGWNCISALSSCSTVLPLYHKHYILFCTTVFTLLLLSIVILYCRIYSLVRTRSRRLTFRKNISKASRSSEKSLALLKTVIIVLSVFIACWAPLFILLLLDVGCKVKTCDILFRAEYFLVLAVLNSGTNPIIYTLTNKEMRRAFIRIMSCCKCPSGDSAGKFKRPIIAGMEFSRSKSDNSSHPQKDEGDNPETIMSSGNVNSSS

Compound	EC50
CCCCN(C(=O)c1ccccc1F)c1nnc(-c2cc(C)c(OCCN3CC(C(=O)O)C3)c(C)c2)s1 [Example 1, 1-[2-(4-{5-[Butyl(2-fluorobenzoyl)amino]-1,3,4-thiadiazol-2-yl}-2,6-dimethylphenoxy)ethyl]azetidine-3-carboxylic acid]	2.5 nM
CCCCN(C(=O)c1ccccc1F)c1nnc(-c2cc(C)c(OCCNCCn3cncn3)c(C)c2)s1 [Example 31, N-butyl-N-{5-[3,5-dimethyl-4-(2-{[2-(1H-1,2,4-triazol-1-yl)ethyl]amino}ethoxy)-phenyl]-1,3,4-thiadiazol-2-yl}-2-fluorobenzamide]	4.1 nM
CCCCN(C(=O)c1ccccc1F)c1nnc(-c2ccc(CNCCO)cc2)s1 [Example 36, N-butyl-2-fluoro-N-[5-(4-{[(2-hydroxyethyl)amino]methyl}phenyl)-1,3,4-thiadiazol-2-yl]benzamide, formate salt]	40 nM
CCCCN(C(=O)Nc1ccccc1)c1nnc(-c2ccc(CN3CC(C(=O)O)C3)cc2)s1 [Example 40, 1-(4-{5-[(anilinocarbonyl)(butyl)amino]-1,3,4-thiadiazol-2-yl}benzyl)azetidine-3-carboxylic acid]	70 nM

More lines, in order of falling EC50, values ahead:

EC50	Compound
8.5 nM	CCCCN(C(=O)c1ccccc1F)c1nnc(-c2cc(C)c(OCCN(C)CCO)c(C)c2)s1 [Example 57, N-butyl-2-fluoro-N-[5-(4-{2-[(2-hydroxyethyl)(methyl)amino]ethoxy}-3,5-dimethylphenyl)-1,3,4-thiadiazol-2-yl]benzamide]
4.1 nM	Cc1cc(-c2nnc(N(CC3CC3)C(=O)c3ccccc3Cl)s2)cc(C)c1OCCN1CCC(CC(=O)O)CC1 [Example 23, {1-[2-(4-{5-[(2-chlorobenzoyl)(cyclopropylmethyl)amino]-1,3,4-thiadiazol-2-yl}-2,6-dimethylphenoxy)ethyl]piperidin-4-yl}acetic acid hydrochloride]
2.3 nM	CCCCN(C(=O)c1ccccc1F)c1nnc(-c2ccc(CN3CC(c4nnn[nH]4)C3)cc2)s1 [Example 30, N-butyl-2-fluoro-N-[5-(4-{[3-(1H-tetrazol-5-yl)azetidin-1-yl]methyl}phenyl)-1,3,4-thiadiazol-2-yl]benzamide]
0.4 nM	CCCCN(C(=O)c1ccccc1F)c1nnc(-c2cc(C)c(OCCNCCc3nn[nH]n3)c(C)c2)s1 [Example 12, N-butyl-N-{5-[3,5-dimethyl-4-(2-{[2-(2H-tetrazol-5-yl)ethyl]amino}ethoxy)phenyl]-1,3,4-thiadiazol-2-yl}-2-fluorobenzamide]
